Measurements reported in ChEMBL document CHEMBL3351512, “Studies on molecular properties prediction and histamine H3 receptor affinities of novel ligands with uracil-based motifs” (Eur J Med Chem, 2014).

Each compound was assayed against Histamine H3 receptor (Homo sapiens, UniProt Q9Y5N1) (assay: Displacement of [3H]N-alpha-Methylhistamine from human recombinant H3 receptor expressed in HEK293 cells by competitive binding assay). Conditions: not given.
Format: cell-based

Chain of Histamine H3 receptor (Homo sapiens, UniProt Q9Y5N1) (Q9Y5N1 whole entry): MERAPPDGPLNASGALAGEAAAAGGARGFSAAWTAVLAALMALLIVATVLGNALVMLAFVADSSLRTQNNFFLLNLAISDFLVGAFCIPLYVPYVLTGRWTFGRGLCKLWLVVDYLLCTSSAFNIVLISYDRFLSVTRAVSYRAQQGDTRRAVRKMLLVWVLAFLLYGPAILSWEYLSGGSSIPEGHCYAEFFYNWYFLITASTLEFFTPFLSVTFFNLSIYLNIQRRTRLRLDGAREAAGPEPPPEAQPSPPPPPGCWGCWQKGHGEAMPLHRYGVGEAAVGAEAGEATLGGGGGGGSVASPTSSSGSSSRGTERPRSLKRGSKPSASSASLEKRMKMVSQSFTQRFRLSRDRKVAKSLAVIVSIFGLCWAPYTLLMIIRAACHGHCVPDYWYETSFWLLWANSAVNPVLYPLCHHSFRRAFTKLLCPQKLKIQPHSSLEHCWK

Row | IC50 [nM] | Compound
1 | ≤ 50 | CCN1CCc2nc(OC3CCN(C4CCC4)CC3)ncc2C1=O

Same assay, conditions: read-out: Ki

Row | Ki [nM] | Compound
2 | < 25 | O=c1cccnn1-c1ccc2nc(N3CC[C@@H](N4CCCCC4)C3)sc2c1

Same assay, conditions: read-out: pKi (converted)

Row | Ki [nM] | Compound
3 | 0.126 | CC(C)N1CCCN(C(=O)C2CCN(c3ccc(C(F)(F)F)nc3)CC2)CC1
4 | 1150 | O=C(c1ccccc1)n1c(=O)ccn(CCCN2CCCCC2)c1=O
5 | 7.24 | O=C(c1ccccc1)n1c(=O)ccn(Cc2ccc(OCCCN3CCCCC3)cc2)c1=O
6 | 31.6 | Cc1cn(Cc2ccc(OCCCN3CCCCC3)cc2)c(=O)n(C(=O)c2ccccc2)c1=O
7 | 34.7 | Cc1c(C)n(Cc2ccc(OCCCN3CCCCC3)cc2)c(=O)n(C(=O)c2ccccc2)c1=O
8 | 50.1 | CC(C)(C)OC(=O)n1ccc(=O)n(Cc2ccc(OCCCN3CCCCC3)cc2)c1=O
9 | 46.8 | Cc1cn(C(=O)OC(C)(C)C)c(=O)n(Cc2ccc(OCCCN3CCCCC3)cc2)c1=O
10 | 38 | Cc1c(C)n(C(=O)OC(C)(C)C)c(=O)n(Cc2ccc(OCCCN3CCCCC3)cc2)c1=O
11 | 7080 | O=c1ccn(CCCN2CCCCC2)c(=O)[nH]1
12 | 12.9 | O=c1ccn(Cc2ccc(OCCCN3CCCCC3)cc2)c(=O)[nH]1
13 | 7.08 | Cc1cn(Cc2ccc(OCCCN3CCCCC3)cc2)c(=O)[nH]c1=O
14 | 17.8 | Cc1c(C)n(Cc2ccc(OCCCN3CCCCC3)cc2)c(=O)[nH]c1=O
15 | 28.8 | O=c1cc[nH]c(=O)n1Cc1ccc(OCCCN2CCCCC2)cc1
16 | 63.1 | Cc1c[nH]c(=O)n(Cc2ccc(OCCCN3CCCCC3)cc2)c1=O

What follows are compounds tested against Histamine H3 receptor (Rattus norvegicus, UniProt Q9QYN8) (assay: Binding affinity to rat H3 receptor). Conditions: not given.
Chain of Histamine H3 receptor (Rattus norvegicus, UniProt Q9QYN8) (Q9QYN8 whole entry): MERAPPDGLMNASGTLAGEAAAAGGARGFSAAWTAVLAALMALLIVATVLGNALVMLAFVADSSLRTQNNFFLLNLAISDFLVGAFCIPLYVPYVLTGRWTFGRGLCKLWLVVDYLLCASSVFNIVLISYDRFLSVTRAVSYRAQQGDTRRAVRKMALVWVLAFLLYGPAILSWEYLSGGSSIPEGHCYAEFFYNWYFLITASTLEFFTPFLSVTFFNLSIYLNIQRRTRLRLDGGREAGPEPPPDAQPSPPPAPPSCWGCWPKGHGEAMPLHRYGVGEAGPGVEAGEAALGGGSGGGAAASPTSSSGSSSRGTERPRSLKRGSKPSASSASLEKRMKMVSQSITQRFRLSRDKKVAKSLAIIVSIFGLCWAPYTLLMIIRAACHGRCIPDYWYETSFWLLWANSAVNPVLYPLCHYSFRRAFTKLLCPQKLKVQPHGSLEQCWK

Row | Ki [nM] | Compound
17 | < 100 | C[C@H]1CCCN1CCCOc1ccc(/C(CN2CCCCC2=O)=N/OC(C)(C)C)cc1
